Data published in ChEMBL document CHEMBL3232899, “Highly conjugated norditerpenoid and pyrroloquinoline alkaloids with potent PTP1B inhibitory activity from Nigella glandulifera” (J Nat Prod, 2014).

Experiments:
A-431 = experiment: Cytotoxicity against human A431 cells at 100 uM by SRB method; assay type: cell-based; details: a-431, 100 µM
[1] = target: T1, Tyrosine-protein phosphatase non-receptor type 1 (Homo sapiens, UniProt P18031); experiment: Inhibition of PTP1B (unknown origin) using nitrophenyl phosphate as substrate after 30 mins by spectrophotometry
T1 sequence (P18031 whole entry): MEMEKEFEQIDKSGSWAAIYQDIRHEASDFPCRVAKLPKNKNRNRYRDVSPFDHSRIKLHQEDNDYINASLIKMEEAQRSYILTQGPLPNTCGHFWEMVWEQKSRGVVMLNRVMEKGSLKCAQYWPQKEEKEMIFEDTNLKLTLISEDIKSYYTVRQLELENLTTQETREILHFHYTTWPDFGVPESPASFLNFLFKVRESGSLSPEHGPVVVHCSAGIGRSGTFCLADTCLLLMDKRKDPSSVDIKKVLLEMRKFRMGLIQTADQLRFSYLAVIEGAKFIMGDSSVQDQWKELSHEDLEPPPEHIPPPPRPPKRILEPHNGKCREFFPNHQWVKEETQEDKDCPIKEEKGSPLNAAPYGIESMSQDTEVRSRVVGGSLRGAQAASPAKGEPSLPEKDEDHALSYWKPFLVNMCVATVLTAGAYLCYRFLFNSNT

IC50 [1] [µM] | SMILES | Activity (A-431)
9.97 | CC1=CC(C)(C)N=C2C[C@@]3(C)CC(=O)C(C(C)C)=CC3=C12 | Non-toxic
9.71 | CC1=CC(C)(C)N=C2C[C@@]3(C)CC(=O)C(C(C)C)=C3C=C12 | Non-toxic
6.44 | CC1=CC(C)(C)N=C2C[C@]3(C)C(=O)C(C)(C)N=C3C(C)=C12 | Non-toxic
